{"source": "patent US6946480B2", "about": "“Glutaminyl based DPIV inhibitors” (priority 2002, dated 2005)", "key": {"[1]": {"target": "T1, recombinant human prolyl oligopeptidase (POP) (Homo sapiens, UniProt P48147)", "T1 construct": "made in house; host or cells: E. coli", "T1 sequence (P48147 1-710)": "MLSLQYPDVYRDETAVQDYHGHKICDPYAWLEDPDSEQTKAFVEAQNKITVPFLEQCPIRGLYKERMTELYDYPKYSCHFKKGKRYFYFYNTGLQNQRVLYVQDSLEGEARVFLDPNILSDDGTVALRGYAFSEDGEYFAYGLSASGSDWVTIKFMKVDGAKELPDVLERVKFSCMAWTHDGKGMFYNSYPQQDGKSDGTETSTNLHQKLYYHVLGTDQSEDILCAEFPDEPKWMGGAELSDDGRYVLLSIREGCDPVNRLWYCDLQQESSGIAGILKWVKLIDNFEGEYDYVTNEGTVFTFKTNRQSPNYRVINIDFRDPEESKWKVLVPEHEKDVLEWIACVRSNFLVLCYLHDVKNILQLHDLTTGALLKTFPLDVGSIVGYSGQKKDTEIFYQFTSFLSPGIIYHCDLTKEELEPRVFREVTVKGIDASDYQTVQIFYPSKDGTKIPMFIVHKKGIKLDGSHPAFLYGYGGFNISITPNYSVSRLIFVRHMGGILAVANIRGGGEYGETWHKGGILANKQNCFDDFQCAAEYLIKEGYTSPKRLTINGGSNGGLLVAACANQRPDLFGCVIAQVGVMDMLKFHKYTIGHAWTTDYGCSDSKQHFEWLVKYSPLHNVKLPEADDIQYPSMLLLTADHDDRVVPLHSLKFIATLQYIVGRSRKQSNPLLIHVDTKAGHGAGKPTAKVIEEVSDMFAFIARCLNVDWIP", "test": "Cross reacting enzymes - prolyl oligopeptidase", "assay_type": "biochemical", "details": "concentration range 1*10^−4 M-5*10^−8 M", "method": "Glutaminyl pyrrolidine or glutaminyl thiazolidine were tested for their cross reacting potency against dipeptidyl peptidase I, prolyl oligopeptidase and prolidase.\nSubstrates are peptides with a molecular weight up to 3000 Da.\nThe enzyme used was a recombinant human prolyl oligopeptidase. Recombinant expression was performed in E. coli under standard conditions as described elsewhere in the state of the art.\n100 μl glutaminyl pyrrolidine or glutaminyl thiazolidine in an concentration range of 1*10^−4 M-5*10^−8 M were admixed with 100 μl μl buffer solution (40 mM HEPES, pH7.6, 0.015% Brij, 1 mM DTT) and 20 μl POP solution. The assay mixture was pre-incubated at 30° C. for 15 min After pre-incubation, 50 μl glycylprolylprolyl-4-nitroaniline solution (0.29 mM) were added and measurement of yellow color development due to 4-nitroaniline release was performed at 30° C. and λ=405 nm for 10 min using a plate reader (sunrise, Tecan, Crailsheim, Germany).\nThe IC50-values were calculated using Graphit 4.0.15 (Erithacus Software, Ltd., UK)."}, "[2]": {"tested_on": "diabetic Zucker rats", "test": "Dose escalation study with oral glucose tolerance test in fatty Zucker rats", "assay_type": "in vivo, Zucker rats (fa/fa)", "details": "for effect on glucose tolerance (OGTT): 2 g/kg glucose", "method": "N=30 male Zucker rats (fa/fa), mean age 11 weeks (5-12 weeks), mean body weight 350 g (150-400 g), were purchased from Charles River (Sulzfeld, Germany). After delivery they were kept for >12 weeks until nearly all fatty Zucker rats had the characteristics of manifest diabetes mellitus. A group of N=8 animals were recruited for testing three escalating doses of glutaminyl pyrrolidine vs. placebo (saline).\nAnimals were single-caged under standardized conditions with controlled temperature (22±2° C.) on a 12/12 hours light/dark cycle (light on at 06:00 AM). Sterile standard pelleted chow (ssniff® Soest, Germany) and tap water acidified with HCl were allowed ad libitum.\nFatty Zucker rats of 24-31 weeks (mean: 25 weeks) age, adapted to the housing conditions, were well prepared for the study.\nCatheters were implanted into the carotid artery of fatty Zucker rats under general anaesthesia (i.p. injection of 0.25 ml/kg b.w. Rompune® [2%], BayerVital, Germany and 0.5 ml/kg b.w. Ketamin 10, Atarost GmbH & Co., Twistringen, Germany). The animals were allowed to recover for one week. The catheters were flushed with heparin-saline (100 IU/ml) three times per week.\nPlacebo (1 ml saline, 0.154 mol/l) or escalating doses of glutaminyl pyrrolidine (5, 15 and 50 mg/kg b.w.) were administered to groups of N=8 fatty Zucker rats. 375 mg of glutaminyl pyrrolidine were dissolved in 1000 μl DMSO (E. Merck, Darmstadt; Germany [Dimethyl sulfoxide p.a.]). 10 ml saline were added and 1 ml aliquots, each containing 34.09 mg of glutaminyl pyrrolidine, were stored at −20° C. For preparation of the test substance, dose dependent aliquots were diluted in saline.\nAfter overnight fasting, placebo or test substance were administered to the fatty Zucker rats via feeding tube orally (15 G, 75 mm; Fine Science Tools, Heidelberg, Germany) at −10 min An oral glucose tolerance test (OGTT) with 2 g/kg b.w. glucose (40% solution, B. Braun Melsungen, Melsungen, Germany) was administered at ±0 min via a second feeding tube. Venous blood samples from the tail veins were collected at −30 min, −15 min, ±0 min and at 5, 10, 15, 20, 30, 40, 60, 90 and 120 min into 20 μl glass capillaries, which were placed in standard tubes filled with 1 ml solution for blood glucose measurement.\nGlucose levels were measured using the glucose oxidase procedure (Super G Glucose analyzer; Dr. Müller Gerätebau, Freital, Germany).\nStatistical evaluations and graphics were performed with PRISM® 3.02 (GraphPad Software, Inc.). All parameters were analysed in a descriptive manner including mean and SD.\nN=30 male Zucker rats (fa/fa), mean age 11 weeks (5-12 weeks), mean body weight 350 g (150-400 g), were purchased from Charles River (Sulzfeld, Germany). […]"}}, "data": [{"smiles": "NC(=O)CC[C@H](N)C(=O)N1CCCC1", "note": "[glutaminyl pyrrolidine]", "values": [{"measurement": "inhibition of POP activity", "setting": "[1]", "value": "no inhibition"}, {"measurement": "effect on glucose tolerance (OGTT)", "setting": "[2]; 5 mg/kg b.w. oral", "value": "limited improvement of glucose tolerance"}, {"measurement": "effect on blood glucose levels over escalating doses (OGTT)", "setting": "[2]; 5 mg/kg, 15 mg/kg and 50 mg/kg b.w. oral", "value": "dose dependent lowering of elevated blood glucose levels"}, {"measurement": "effect on glucose tolerance (OGTT)", "setting": "[2]; 15 mg/kg b.w. oral", "value": "Significant lowering of elevated blood glucose levels"}, {"measurement": "effect on glucose tolerance (OGTT)", "setting": "[2]; 50 mg/kg b.w. oral", "value": "Significant lowering of elevated blood glucose levels"}]}]}
